Values of other authors, collected in patent publication US9668844B2, “Device for fixation at a dental site” (Colldent Y.A. Ltd., priority 2013, dated 2017).

Columns and labels:
bacteria = settings: see Paine, M. L. et al JADA 129 (1998)

| Structure (SMILES) | acute lethal dose of fluoride (F) (acute) [mg F/Kg body weight] | chronic toxicity (chronic) [mg F/Kg] | antibacterial activity (bacteria) |
| --- | --- | --- | --- |
| F [fluoride] | 33 | 0.1 | – |
| [F][Sn][F] [stannous fluoride] | – | – | has shown antibacterial activity |
